According to patent publication US20040138193A1, “Oestrogen fatty acid monoester as a hypolipidaemic and antidiabetic agent” (priority 2001, published 2004):

Assays:
Type in all cases: in vivo, rat
[1] = test system: genetically obese adult female Zucker rats (genotype fa/fa); assay: Plasma lipoproteinogram (polyacrylamide gel electrophoresis), obese rats; conditions: 10 micromols per kg daily, 10 days
Protocol: FIG. 2 is a lipoproteinogram analogous to the one of FIG. 1, but using obese rats (Zucker fa/fa).
Since treatment with oleoyl-estrone deeply modifies the plasma lipids of rats, an experiment was carried out to determine whether the oral administration of oleoyl-estrone modifies the plasma lipidogram of lean and genetically obese rats. Two groups of animals were used: (1) normal-weight adult female Zucker rats (genotype Fa/?), and (2) genetically obese adult female Zucker rats (genotype fa/fa). In the first group one rat was killed to obtain a sample of blood (intact control); in the second group (obese rats), two intact controls were killed and their blood recovered. All the remaining rats were kept under standard housing conditions, with free access to food and water; the rats receivid a daily gavage of 0.2 ml of sunflower oil by means of a stomach tube; in three rats form each group, the oil was supplemented with enough oleoyl-estrone to achieve a daily dose of 10 micromols per kg of rat weight. After 10 days of treatment, the rats were killed, and their blood was recovered. All blood samples were centrifuged to obtain plasma; plasma proteins were analysed by means of polyacrylamide gel electroforesis (kit Lipofilm, Sebia, Issy les Molineaux, France), lipids were stained with Sudan black.

lean rats = assay: Lipoprotein separation by ultracentrifugation and lipid composition analysis, lean rats; conditions: 10 μmol/kg daily, vs controls
Description: Codes in bars are: triacylglycerols=white; phospholipids=lines; cholesterol=dots.
(§1) Lipoproteins in fresh plasma were fractionated by differential ultracentrifugation in known density media obtained through the addition of KBr. […] These fractions were used for the analysis of protein and lipidic components, and for the estimation of particle size.
(§2) Whole plasma, lipoprotein fractions and LPdp were used for the analysis of protein and lipid content. Total protein was estimated with the Bradford method (cf. M. M. Bradford, Anal. Biochem. 1976, vol. 72, pp. 248-254). Total cholesterol was measured in saline with a high-performance cholesterol kit. Triacylglycerol concentrations were measured with a commercial kit and the results were corrected for free glycerol. Phospholipid was quantified by a choline-based method. […] Recoveries for all plasma components (i.e. deviations from the values in whole plasma and those derived from the sum of its content in lipoprotein fractions) were lowest for triacylglycerols (88±3%) and highest for protein (92±3%). Sudan black-prestained serum samples were sepparated by polyacrylamide gel electrophoresis. Separation of lipoprotein classes through centrifugation allowed a detailed analysis of lipoprotein composition as shown in FIGS. 3 and 4.

obese rats = assay: Lipoprotein separation by ultracentrifugation and lipid composition analysis, obese rats; conditions: 10 μmol/kg daily, vs controls
Description: FIG. 4 is analogous to FIG. 3, but for obese rats.
as §1, §2

Wistar female rats = assay: Dose dependence of plasma parameters after 10 days of daily oral gavage in normal Wistar female rats; conditions: for plasma 3-hydroxybutyrate / plasma glucose / plasma insulin / plasma non-esterified fatty acids / plasma total cholesterol / plasma triacylglycerols: female Wistar rats, 10 days
Protocol: Eight groups of 6 normal Wistar female rats each were used. The animals were kept under standard housing conditions and had free access to pellet food and tap water. All the rats received a daily oral gavage of 0.2 ml of sunflower oil through a stomach tube. This oil contained different amounts of oleoyl-estrone so that the rats received daily doses of 0, 0.2, 0.5, 1, 2, 5, 10 or 20 micromols per kg of body weight. After 10 days of daily gavages, the rats were killed and their blood extracted and used to obtain plasma through centrifugation. Plasma samples were used for the analysis of glucose, total cholesterol and triacylglycerols by means of a dry-strip procedure (Spotchem, Menarini, Firenze, Italy), the levels of 3-hydroxybutyrate were measured with the kit 907979 from Boehringer Mannheim (Mannheim, Germany), and non-esterified fatty acids with the kit 1383175 from the same company. Insulin levels were measured through radioimmunoassay (rat insulin kit, Amersham, Amersham, United Kingdom).

[2] = Wistar female rats, doses 0.2-20 micromols per kg, ANOVA P<0.05

`CCCCCCCC/C=C\CCCCCCCC(=O)Oc1ccc2c(c1)CC[C@@H]1[C@@H]2CC[C@]2(C)C(=O)CC[C@@H]12` [oleoyl-estrone] was tested, and the “lipoprotein pattern in lipoproteinogram” value [1] was “this same pattern is repeated, but there is an additional wide band between the LDL and VLDL zones”, the “change in lipoprotein composition” value (lean rats) was “little change” and the “change of cholesterol in the HDL fraction” value (lean rats) was “decreased most”. For the same molecule, the “change of total phospholipid levels in lipoprotein-depleted plasma” value (lean rats) was “decrease”, the “change of HDL components” value (obese rats) was “all components decreased again with treatment, except for triacylglycerols” and the “change of LDL components” value (obese rats) was “only tricylglycerol levels decreased”. For the same molecule, the “change of chylomicra and VLDL components” value (obese rats) was “marked decreases”, the “change of total phospholipid levels in lipoprotein-depleted plasma” value (obese rats) was “decrease” and the “levels of all lipid classes in whole plasma” value (obese rats) was “markedly lower levels”. The “doses giving lower insulin values than controls” value (Wistar female rats; Wistar female rats, 10 days oral gavage) was ≥ 1 micromol/kg and day, the “change in circulating levels of 3-hydroxybutyrate” value (Wistar female rats; [2]) was “no globally significant changes” and the “change in circulating levels of glucose” value (Wistar female rats; [2]) was “no globally significant changes”. For the same molecule, the “change in circulating levels of non-esterified fatty acids” value (Wistar female rats; [2]) was “no globally significant changes”, the “change in circulating levels of triacylglycerols” value (Wistar female rats; [2]) was “no globally significant changes” and the “drop in insulin levels” value (Wistar female rats; Wistar female rats, vs controls) was “significant”. The “plasma 3-hydroxybutyrate” value (Wistar female rats; daily gavage 0.2 μmol/kg · d) was 291 ± 40 µM, the plasma glucose (Wistar female rats; daily gavage 0.2 μmol/kg · d) was 6.35 ± 0.47 mM and the plasma insulin (Wistar female rats; daily gavage 0.2 μmol/kg · d) was 0.624 nM. The “plasma non-esterified fatty acids” value (Wistar female rats; daily gavage 0.2 μmol/kg · d) was 184 ± 31 µM, the plasma total cholesterol (Wistar female rats; daily gavage 0.2 μmol/kg · d) was 1.21 ± 0.12 mM and the plasma triacylglycerols (Wistar female rats; daily gavage 0.2 μmol/kg · d) was 1.57 ± 0.43 mM. The “plasma 3-hydroxybutyrate” value (Wistar female rats; daily gavage 0.5 μmol/kg · d) was 189 ± 41 µM, the plasma glucose (Wistar female rats; daily gavage 0.5 μmol/kg · d) was 5.74 ± 0.31 mM and the plasma insulin (Wistar female rats; daily gavage 0.5 μmol/kg · d) was 0.497 ± 0.067 nM. For the same molecule, the “plasma non-esterified fatty acids” value (Wistar female rats; daily gavage 0.5 μmol/kg · d) was 273 ± 47 µM, the plasma total cholesterol (Wistar female rats; daily gavage 0.5 μmol/kg · d) was 1.02 ± 0.08 mM and the plasma triacylglycerols (Wistar female rats; daily gavage 0.5 μmol/kg · d) was 1.79 ± 0.23 mM. For the same molecule, the “plasma 3-hydroxybutyrate” value (Wistar female rats; daily gavage 1 μmol/kg · d) was 305 ± 56 µM, the plasma glucose (Wistar female rats; daily gavage 1 μmol/kg · d) was 5.71 ± 0.46 mM and the plasma insulin (Wistar female rats; daily gavage 1 μmol/kg · d) was 0.241 ± 0.044 nM. The “plasma non-esterified fatty acids” value (Wistar female rats; daily gavage 1 μmol/kg · d) was 147 ± 30 µM, the plasma total cholesterol (Wistar female rats; daily gavage 1 μmol/kg · d) was 1.13 ± 0.15 mM and the plasma triacylglycerols (Wistar female rats; daily gavage 1 μmol/kg · d) was 1.26 ± 0.26 mM. For the same molecule, the “plasma 3-hydroxybutyrate” value (Wistar female rats; daily gavage 2 μmol/kg · d) was 263 ± 27 µM, the plasma glucose (Wistar female rats; daily gavage 2 μmol/kg · d) was 5.76 ± 0.20 mM and the plasma insulin (Wistar female rats; daily gavage 2 μmol/kg · d) was 0.280 ± 0.036 nM. The “plasma non-esterified fatty acids” value (Wistar female rats; daily gavage 2 μmol/kg · d) was 281 ± 44 µM, the plasma total cholesterol (Wistar female rats; daily gavage 2 μmol/kg · d) was 1.01 ± 0.27 mM and the plasma triacylglycerols (Wistar female rats; daily gavage 2 μmol/kg · d) was 1.70 ± 0.11 mM. For the same molecule, the “plasma 3-hydroxybutyrate” value (Wistar female rats; daily gavage 5 μmol/kg · d) was 300 ± 64 µM, the plasma glucose (Wistar female rats; daily gavage 5 μmol/kg · d) was 5.64 ± 0.21 mM and the plasma insulin (Wistar female rats; daily gavage 5 μmol/kg · d) was 0.275 ± 0.053 nM. The “plasma non-esterified fatty acids” value (Wistar female rats; daily gavage 5 μmol/kg · d) was 213 ± 48 µM, the plasma total cholesterol (Wistar female rats; daily gavage 5 μmol/kg · d) was 1.03 ± 0.13 mM and the plasma triacylglycerols (Wistar female rats; daily gavage 5 μmol/kg · d) was 1.91 ± 0.33 mM. The “plasma 3-hydroxybutyrate” value (Wistar female rats; daily gavage 10 μmol/kg · d) was 301 ± 42 µM, the plasma glucose (Wistar female rats; daily gavage 10 μmol/kg · d) was 5.90 ± 0.31 mM and the plasma insulin (Wistar female rats; daily gavage 10 μmol/kg · d) was 0.262 ± 0.050 nM. The “plasma non-esterified fatty acids” value (Wistar female rats; daily gavage 10 μmol/kg · d) was 152 ± 24 µM, the plasma total cholesterol (Wistar female rats; daily gavage 10 μmol/kg · d) was 0.66 ± 0.09 mM and the plasma triacylglycerols (Wistar female rats; daily gavage 10 μmol/kg · d) was 1.39 ± 0.14 mM. The “plasma 3-hydroxybutyrate” value (Wistar female rats; daily gavage 20 μmol/kg · d) was 237 ± 47 µM, the plasma glucose (Wistar female rats; daily gavage 20 μmol/kg · d) was 5.62 ± 0.20 mM and the plasma insulin (Wistar female rats; daily gavage 20 μmol/kg · d) was 0.223 ± 0.041 nM. For the same molecule, the “plasma non-esterified fatty acids” value (Wistar female rats; daily gavage 20 μmol/kg · d) was 122 ± 39 µM, the plasma total cholesterol (Wistar female rats; daily gavage 20 μmol/kg · d) was 0.53 ± 0.05 mM and the plasma triacylglycerols (Wistar female rats; daily gavage 20 μmol/kg · d) was 0.92 ± 0.11 mM.
